We go through 30 compounds from patent US6525059B1, “Substituted pyrazoles as p38 kinase inhibitors” (G. D. Searle & Company, priority 1998, dated 2003).

Structures are written as SMILES. Structures can show the parent of a compound that is named as a salt. Where two headings read alike, the source gives them in different places.

The target in one assay is T1, human p38 kinase alpha (Homo sapiens, UniProt Q16539).
T1 construct: The coding region of the human p38a cDNA was obtained by PCR-amplification from RNA isolated from the human monocyte cell line THP.1; GST (N); made in house; host or cells: E. coli DH10B
In words: p38 kinase in vitro assay, phosphorylation of biotinylated PHAS-I with gamma 32P-ATP. Format: biochemical. The method in brief:
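Radiometric filter-capture read-out: streptavidin plates trap biotin-PHAS-I labelled by activated (MKK6) human p38α from γ-32P-ATP. Buffer 25 mM HEPES pH 7.5, 10 mM magnesium acetate, 50 μM cold ATP; reactions 1 h or overnight at 30 °C; inhibitors 10-fold dilutions 100 to 0.001 μM, triplicates, 1% DMSO.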

Another assay concerns TNF-α. In words: Rat assay: LPS-challenged rats, serum TNF-α by ELISA. Format: in vivo. The settings on record: for inhibition in vivo at 5 mg/kg / inhibition in vivo at 1 mg/kg: Rattus norvegicus, po; for inhibition in vivo at 1 mg/kg: 1.0 mg/kg oral gavage, read-out: ratLPS/% Inh @1.0 (mg/kg); for ratLPS/% Inh @20.0 (mg/kg): 20.0 mg/kg oral gavage.
The subject of a further assay is human TNF. In words: TNF inhibition: human whole blood assay. The class given is cell-based. To be noted: Homo sapiens. How it is done: Human peripheral blood is obtained in heparinized tubes. A 190 μL aliquot of blood is placed in each well of a 96 well u-bottom plate. […] After one hour of incubation at 37° C., […] of lipopolysaccharide (Salmonella typhosa, Sigma) in phosphate buffered saline is added resulting in a final concentration of […]. After four to five hours of incubation at 37° C., the supernatants are harvested and assayed at 1:10 or 1:20 dilutions for human TNF using ELISA.

[1] abbreviates: read-out: P38 alpha kinase IC50.
[2] abbreviates: 5 mpk oral gavage, 4 h before LPS challenge, read-out: Rat LPS Model % Inhibition @ dose @ predose time.
Setting [3] is: TNF production, LPS-stimulated human whole blood, read-out: Human Whole Blood IC50.
Setting [4] is: 5.0 mg/kg oral gavage, 4 hours before LPS challenge, read-out: ratLPS/% Inh @5.0 (mg/kg).
Setting [5] is: TNF production, LPS-stimulated human whole blood, read-out: HWB IC50.
Where [6] appears, read: read-out: Rat LPS Model % Inhibition @ dose @ predose time.
Setting [7] is: read-out: Human Whole Blood IC50, μM.

T1 sequence (Q16539 whole entry): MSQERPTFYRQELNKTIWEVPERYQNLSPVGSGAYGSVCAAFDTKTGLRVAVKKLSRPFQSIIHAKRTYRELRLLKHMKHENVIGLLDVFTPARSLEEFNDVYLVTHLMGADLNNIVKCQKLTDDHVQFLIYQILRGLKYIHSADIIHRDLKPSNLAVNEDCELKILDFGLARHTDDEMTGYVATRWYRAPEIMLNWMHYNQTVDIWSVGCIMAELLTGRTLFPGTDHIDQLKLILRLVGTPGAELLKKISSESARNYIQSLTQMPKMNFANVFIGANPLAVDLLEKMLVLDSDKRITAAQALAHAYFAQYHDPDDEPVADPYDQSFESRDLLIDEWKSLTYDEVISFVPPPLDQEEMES

Turning to `CC(C)(O)CCCc1[nH]nc(-c2ccc(F)cc2)c1-c1ccncc1` [Example C-133], the IC50 worked out at 0.16 µM on human p38 kinase alpha (setting [1]) and 4.54 µM in the assay on human TNF (setting [3]). Further, the inhibition in vivo at 5 mg/kg in the assay on TNF-α (setting [2]) was found to be 55%.
Taken in the same sequence, the figures for `CS(=O)(=O)N1CCC(c2[nH]nc(-c3ccc(F)cc3)c2-c2ccncc2)CC1` [Example C-111] were 0.21 µM, 6.05 µM and 39%.
The like results for `CN(C)[C@H]1CC[C@@H](c2[nH]nc(-c3cccc(Cl)c3)c2-c2ccncc2)CC1` [Example C-106, 5-cis-(4-N,N-DIMETHYLAMINOCYCLOHEXYL)-4-(4-PYRIDYL)-3-(3-CHLOROPHENYL)PYRAZOLE] were, in that order, 0.026 µM, 0.44 µM and 23%.
Taken in the same sequence, the figures for `COCCN1CCC(c2[nH]nc(-c3ccc(Cl)cc3)c2-c2ccncc2)CC1` [Example C-79] were 0.045 µM, 0.52 µM and 83%.
For `O=C(CO)N1CCC(c2[nH]nc(-c3ccc(C(F)(F)F)cc3)c2-c2ccncn2)CC1` [Example D-9], the IC50 was determined as 1.63 µM on human p38 kinase alpha (read-out: p38 alpha IC50) and 15.8 µM in the assay with human TNF (setting [5]). Further, the inhibition in vivo at 1 mg/kg with TNF-α (4 hours before LPS challenge) turned out to be 5%. Besides, the inhibition in vivo at 5 mg/kg in the assay on TNF-α (setting [4]) stood at 86%.
Regarding `CC(=N)N1CCC(c2[nH]nc(-c3ccc(F)cc3)c2-c2ccncc2)CC1` [Example C-107], the IC50 against human p38 kinase alpha (P38 alpha kinase IC50, μM) was 0.014 µM; with human TNF (setting [7]) it was 0.38 µM. In addition, the inhibition in vivo at 5 mg/kg in the assay on TNF-α (setting [6]) turned out to be 11%.
Consider `O=C(CO)N1CCC(c2[nH]nc(-c3cccc(Cl)c3)c2-c2ccncn2)CC1` [Example D-11, N-(2-Hydroxyacetyl)-5-(4-piperidyl)-4-(4-pyrimidyl)-3-(3-chlorophenyl)pyrazole], for which the concentration for half-maximal inhibition (IC50) came out at 0.16 µM at human p38 kinase alpha (read-out: p38 alpha IC50) and 1.5 µM in the assay with human TNF (setting [5]). For the same compound, the inhibition in vivo at 1 mg/kg in the assay with TNF-α (4 hours before LPS challenge) is 43%. Also, the inhibition in vivo at 5 mg/kg in the assay on TNF-α (setting [4]) was 86%.
Regarding `CC(=O)N1CCC(c2[nH]nc(-c3ccc(Cl)cc3)c2-c2ccncc2)CC1` [Example C-76], the values for the 50% inhibitory concentration (IC50) on human p38 kinase alpha (setting [1]) and in the assay on human TNF (setting [3]) were 0.07 µM and 3.24 µM, respectively. Besides, in the assay on TNF-α (setting [2]), the inhibition in vivo at 5 mg/kg came to 66%.
Taken in the same sequence, the figures for `CN1CCC[C@H]1c1[nH]nc(-c2ccc(F)cc2)c1-c1ccncc1` [Example C-124, (S)-5-(N-METHYL-2-PYROLIDINYL)-4-(4-PYRIDYL)-3-(4-FLUOROPHENYL)PYRAZOLE] were 0.17 µM, 4.56 µM and 51%.
Taken in the same sequence, the figures for `COCC(=O)N1CCC(c2[nH]nc(-c3ccc(F)cc3)c2-c2ccncc2)CC1` [Example C-112] were 0.54 µM, 6.36 µM and 89%.
The like results for `CN1CCC(c2[nH]nc(-c3ccc(C(F)(F)F)cc3)c2-c2ccncc2)CC1` [Example C-84, 5-(N-METHYL-4-(4-PYRIDYL)-4-(4-PYRIDYL)-3-[4-(TRIFLUOROMETHYL)PHENYL]PYRAZOLE] were, in that order, 0.048 µM, 0.88 µM and 22%.
For `Nc1ccc(Cc2[nH]nc(-c3ccc(Cl)cc3)c2-c2ccncc2)cc1` [Example C-116, 5-(4-AMINOBENZYL)-4-(4-PYRIDYL)-3-(4-CHLOROPHENYL)PYRAZOLE], the IC50 came out at 0.429 µM at human p38 kinase alpha (setting [1]) and 0.5 µM in the assay on human TNF (setting [3]). Moreover, the inhibition in vivo at 5 mg/kg in the assay with TNF-α (setting [2]) turned out to be 53%.
The like results for `N[C@H]1CC[C@@H](c2[nH]nc(-c3ccc(F)cc3)c2-c2ccncc2)CC1` [Example C-98, 5-cis-(4-AMINOCYCLOHEXYL-4-(4-PYRIDYL)-3-(4-FLUOROPHENYL)PYRAZOLE] were, in that order, 0.016 µM, 0.64 µM and 78%.
Taken in the same sequence, the figures for `N=C(N)N1CCC(c2[nH]nc(-c3ccc(F)cc3)c2-c2ccncc2)CC1` [Example C-108] were 0.02 µM, 0.73 µM and 0%.
Taken in the same sequence, the figures for `CC(=O)N1CCCC(c2[nH]nc(-c3ccc(F)cc3)c2-c2ccncc2)C1` (stereo not drawn) [Example C-138] were 0.28 µM, 0.68 µM and 26%.
In the case of `CN1CCC[C@@H]1c1[nH]nc(-c2ccc(F)cc2)c1-c1ccncc1` [Example C-126, (R)-5-(N-METHYL-2-PYROLIDINYL)-4-(4-PYRIDYL)-3-(4-FLUOROPHENYL)PYRAZOLE], the IC50 was 0.71 µM at human p38 kinase alpha (setting [1]) and more than 25 µM in the assay with human TNF (setting [3]). Also, the inhibition in vivo at 5 mg/kg in the assay on TNF-α (setting [2]) turned out to be 6%.
The like results for `CN(C)c1ccc(Cc2[nH]nc(-c3ccc(Cl)cc3)c2-c2ccncc2)cc1` [Example C-117] were, in that order, 3.42 µM, 7.26 µM and 71%.
The like results for `Clc1cccc(-c2n[nH]c(C3CCNCC3)c2-c2ccncc2)c1` [Example C-88] were, in that order, 0.012 µM, 0.3 µM and 59%.
As for `CC(C)(N)C(=O)NCc1[nH]nc(-c2ccc(F)cc2)c1-c1ccncc1` [Example C-120], the values for the IC50 on human p38 kinase alpha (setting [1]) and in the assay on human TNF (setting [7]) were 0.7 µM and 18.6 µM, respectively. Further, the inhibition in vivo at 5 mg/kg with TNF-α (setting [6]) came out at 26%.
Take `O=C(CO)N1CCC(c2[nH]nc(-c3cccc(C(F)(F)F)c3)c2-c2ccncn2)CC1` [Example D-13]: the 50% inhibitory concentration (IC50) came out at 0.33 µM at human p38 kinase alpha (read-out: p38 alpha IC50) and 8.36 µM in the assay on human TNF (setting [5]). Moreover, in the assay with TNF-α (4 hours before LPS challenge), the inhibition in vivo at 1 mg/kg came to 53%. Moreover, in the assay on TNF-α (setting [4]), the inhibition in vivo at 5 mg/kg was found to be 87%.
For `CN(C)[C@H]1CC[C@@H](c2[nH]nc(-c3ccc(Cl)cc3)c2-c2ccncc2)CC1` [Example C-93, 5-cis-(4-N,N-DIMETHYLAMINOCYCLOHEXYL)-4-(4-PYRIDYL)-3-(4-CHLOROPHENYL)PYRAZOLE], the figures for the IC50 on human p38 kinase alpha (setting [1]) and in the assay with human TNF (setting [3]) were 0.009 µM and 0.38 µM, respectively. In addition, in the assay on TNF-α (setting [2]), the inhibition in vivo at 5 mg/kg worked out at 50%.
`CC(C)N[C@H]1CC[C@@H](c2[nH]nc(-c3ccc(Cl)cc3)c2-c2ccncc2)CC1` [Example C-94, 5-[cis-4-N-(2-PROPYL)AMINOCYCLOHEXYL]-4-(4-PYRIDYL)-3-(4-CHLOROPHENYL)PYRAZOLE]: the half-maximal inhibitory concentration (IC50) on human p38 kinase alpha (setting [1]) came out at 0.02 µM; in the assay with human TNF (setting [3]), 0.27 µM. For the same compound, the inhibition in vivo at 5 mg/kg with TNF-α (setting [2]) was 73%.
In the case of `C[C@@H](O)C(=O)N1CCC(c2[nH]nc(-c3ccc(Cl)cc3)c2-c2ccncn2)CC1` [Example D-6, hydrochloride], the IC50 on human p38 kinase alpha (read-out: p38 alpha IC50) came out at 0.083 µM. Further, in the assay on TNF-α (4 hours before LPS challenge), the “ratLPS/% Inh @20.0 (mg/kg)” value was determined as 100% and the inhibition in vivo at 1 mg/kg was determined as 82%. Moreover, the inhibition in vivo at 5 mg/kg in the assay with TNF-α (setting [4]) was determined as 96%. Also, the IC50 in the assay with human TNF (setting [5]) was found to be 1.33 µM.
The like results for `CC(C)(O)C(=O)N1CCC(c2[nH]nc(-c3ccc(Cl)cc3)c2-c2ccncn2)CC1` [Example D-4, hydrochloride] were, in that order, 0.91 µM, 99.0%, 42.3%, 83% and 1.55 µM.
In the case of `CC(C)N[C@H]1CC[C@@H](c2[nH]nc(-c3ccc(F)cc3)c2-c2ccncc2)CC1` [Example C-100, 5-cis-[4-N-(2-PROPYL)AMINOCYCLOHEXYL]-4-(4-PYRIDYL)-3-(4-FLUOROPHENYL)PYRAZOLE], the IC50 came out at 0.027 µM on human p38 kinase alpha (setting [1]) and 0.27 µM with human TNF (setting [3]). For the same compound, in the assay with TNF-α (setting [2]), the inhibition in vivo at 5 mg/kg came out at 44%.
The like results for `N[C@H]1CC[C@@H](c2[nH]nc(-c3ccc(Cl)cc3)c2-c2ccncc2)CC1` [Example C-92, 5-cis-(4-AMINOCYCLOHEXYL)-4-(4-PYRIDYL)-3-(4-CHLOROPHENYL)PYRAZOLE] were, in that order, 0.024 µM, 0.28 µM and 66%.
The like results for `COCc1[nH]nc(-c2ccc(Cl)cc2)c1-c1ccncc1` [Example C-115, 5-(METHOXYMETHYL)-4-(4-PYRIDYL)-3-(4-CHLOROPHENYL)PYRAZOLE] were, in that order, 0.042 µM, 10.2 µM and 39%.
Turning to `CN1CCCC(c2[nH]nc(-c3ccc(F)cc3)c2-c2ccncc2)C1` (stereo not drawn) [Example C-91], the IC50 on human p38 kinase alpha (setting [1]) amounted to 0.054 µM; in the assay with human TNF (setting [3]), 2.31 µM. In addition, in the assay with TNF-α (setting [2]), the inhibition in vivo at 5 mg/kg was 63%.
Take `COCC(=O)N1CCCC(c2[nH]nc(-c3ccc(F)cc3)c2-c2ccncc2)C1` (stereo not drawn) [Example C-139]: the figures for the IC50 on human p38 kinase alpha (setting [1]) and with human TNF (setting [3]) were 0.2 µM and 3.66 µM, respectively. The inhibition in vivo at 5 mg/kg with TNF-α (setting [2]) is 46%.
As to `C[C@H](O)C(=O)N1CCC(c2[nH]nc(-c3ccc(Cl)cc3)c2-c2ccncn2)CC1` [Example D-5, hydrochloride], the IC50 on human p38 kinase alpha (read-out: p38 alpha IC50) was 0.14 µM. Moreover, in the assay on TNF-α (4 hours before LPS challenge), the “ratLPS/% Inh @20.0 (mg/kg)” value is on record as 83.0% and the inhibition in vivo at 1 mg/kg was 65%. Also, in the assay with TNF-α (setting [4]), the inhibition in vivo at 5 mg/kg stood at 78.5%. Moreover, in the assay with human TNF (setting [5]), the IC50 came out at 4.09 µM.

By IC50 is commonly meant the midpoint of a concentration-inhibition curve.
